Data taken from patent US7544835B2, “Carboxylic acid derivative and salt thereof” (Eisai R&D Management Co., Ltd., priority 2001, dated 2009).
Like-named read-outs stand apart in the source and are kept apart here.

System: male db/db mice
Assay: Blood glucose, triglyceride and non-esterified fatty acid reduction in db/db mice
Type: in vivo
Settings: Mus musculus, 216 h, oral once a day, day 9 after administration
Method: A chemical suspended in 0.5% methyl cellulose was orally administered via a sonde into male db/db mice (Nippon Charles River, Yokohama, JP) once a day (0.3 to 30 mg/kg/day). Before treatment and after 4 and 9 days treatment, blood was collected through a tail vein after the mice were fasted for 1 hour, respectively. On Day 10, an oral glucose loading test was conducted; in this test, the mice were fasted overnight from the previous day, and in the next morning, 2 g/kg glucose was given to the mice. Plasma glucose, triglycerides (TG), non-esterified fatty acid (NEFA) were measured by using commercial kits, that is, Glucose C-II Test Wako (trade name) (Wako Pure Chemical Industries, Ltd., Tokyo), Determiner L TG II (trade name) (Kyowa Medex, Tokyo) and NEFA C-Test Wako (Wako Pure Chemical Industries, Ltd., Tokyo), respectively.
The determined blood glucose reduction, blood triglyceride reduction and blood non-esterified fatty acid reduction at day 9 after administration are shown in Table 1.

[1] = read-out: Blood free fatty acid reduction (%)
[2] = read-out: Blood sugar reduction (%)
[3] = read-out: Blood triglyceride reduction (%)

SMILES | inhibition in vivo at 3 mg/kg [1] | inhibition in vivo at 3 mg/kg [2] | inhibition in vivo at 3 mg/kg [3] | inhibition in vivo at 6 mg/kg [1] | inhibition in vivo at 6 mg/kg [2] | inhibition in vivo at 6 mg/kg [3]
CC(C)O[C@@H](Cc1cccc(OC[C@@H](F)COc2ccc(Cl)cc2Cl)c1)C(=O)O [Example 320, 3-{3-[3-(2,4-Dichlorophenoxy)-2 (R)-fluoropropoxy]phenyl}-2(S)-isopropoxypropanoic acid] | 35.4% | 56.3% | 80.3% | – | – | –
CC(C)OC(Cc1cccc(C#C[C@]2(O)CC[C@@H](C(C)(C)C)CC2)c1)C(=O)O (stereo partly drawn) [Ex 113, trans-3-(3-2-[4-t-Butyl-1-hydroxycyclohexyl]-1-ethynylphenyl)-2-isopropoxypropanoic acid] | – | – | – | 39.5% | 70% | 81.8%
CC(C)O[C@@H](Cc1cccc(CNC(=O)OCc2cccc(OC(F)(F)F)c2)c1)C(=O)O [Ex 344, 3-(3-{[3-Trifluoromethoxybenzyloxycarbonylamino]methyl}phenyl)-2(S)-isopropoxypropanoic acid] | 58.1% | 45.8% | 61.8% | – | – | –
CC(C)O[C@@H](Cc1cccc(OC[C@H](F)COc2ccc(Cl)cc2C#N)c1)C(=O)O [Example 329, 3-{3-[3-(4-Chloro-2-cyanophenoxy)-2(S)-fluoropropoxy]phenyl}-2(S)-isopropoxypropanoic acid] | 47.5% | 37.7% | 36.8% | – | – | –
C/C(=N\OCc1ccc(C(F)(F)F)cc1)c1cccc(CC(OC(C)C)C(=O)O)c1 (stereo not drawn) [Ex 132, 2-Isopropoxy-3-[3-([4-(trifluoromethyl)benzyl]-oxyethaneimidoyl)phenyl]propanoic acid] | – | – | – | 72.5% | 50.4% | 75.5%
CC(C)O[C@@H](Cc1cccc(OC[C@H](O)COc2ccc(Cl)cc2)c1)C(=O)O [Example 282, 3-(3-{2(R)-Hydroxy-3-[4-chlorophenoxy]propoxy}phenyl)-2(S)-isopropoxypropanoic acid] | 18.4% | 17.9% | 59.7% | – | – | –
CC(C)O[C@@H](Cc1cccc(CNC(=O)OCc2ccc(OC(F)(F)F)cc2)c1)C(=O)O [Ex 335, 2 (S)-Isopropoxy-3-{3-[(4-trifluoromethoxybenzyloxycarbonylamino)methyl]phenyl}-propanoic acid] | 40% | 57.2% | 81.4% | – | – | –
CC(C)OC(Cc1cccc(OCC#Cc2ccc(Cl)cc2Cl)c1)C(=O)O (stereo not drawn) [Ex 100, 2-Isopropoxy-3-(3-[3-(2,4-dichlorophenyl)-2-propynyl]oxyphenyl)propanoic acid] | – | – | – | 60.7% | 65.1% | 79.3%
